Laboratory results published in patent publication US20190090476A1, “MICROEMULSIONS FOR AGRICULTURAL USE” (Florida Chemical Company, Inc., priority 2017, published 2019).
Where two headings read alike, the source gives them in different places.

Key:
[1] = cited from earlier work; for δD: energy from dispersion forces; for δH: energy from hydrogen bonds; for δP: energy from polar intermolecular force
[2] = HSP distance Ra and relative energy difference RED of solvents versus plant wax HSP values; details: for RED 1: RED=Ra 1/Ro; for RED 1 / RED 2: Ro=7.1; for RED 2: RED=Ra 2/Ro
From the text: The HSP distance between two molecules, conventionally called Ra, is the measure of how alike they are. The smaller the Ra, the more likely they are to be compatible. A quantity called the relative energy difference (RED) may be used to measure relative distance:
where Ro is the radius of the sphere that contains all good solvents. […] Generally, a value of Ro=7.1 is typical. For RED<1, the molecules are alike and will dissolve. For RED=1, the system will partially dissolve. For RED>1, the system will not dissolve.
A solvent with similar HSP values to these, or a solvent for which Ra (calculated as shown above) is small, or for which RED is less than or equal to 1, would be expected to partially solvate and soften plant leaf cuticle waxes.

[3] = HSP distance to lower plant wax HSP values (δD=16.0-16.3, δP 0-2.5, δH=0-3.1)
[4] = HSP distance to upper plant wax HSP values (δD=16.0-16.3, δP 0-2.5, δH=0-3.1)

Row | Structure (SMILES) | δD [1] [MPa^1/2] | δH [1] [MPa^1/2] | δP [1] [MPa^1/2] | Ra 2 [2, 3] | Ra 1 [2, 4] | RED 1 [2] | RED 2 [2] | Ra 1 [2] | Ra 2 [2]
1 | O=C(OCc1ccccc1)c1ccccc1 [Benzyl Benzoate] | 20 | 5.2 | 5.1 | 8.1 | 10.8 | 1.52 | 1.14 | – | –
2 | O=C1OCCO1 [Ethylene Carbonate] | – | – | – | 19.6 | 22.6 | 3.19 | 2.76 | – | –
3 | CCCCOCCO [Ethylene Glycol Monobutyl Ether] | 16 | 12.3 | 5.1 | 9.6 | 13.3 | 1.88 | 1.35 | – | –
4 | CC(=O)OCCC(C)C [Iso-Pentyl Acetate] | 15.3 | 7 | 3.1 | 4.4 | 7.8 | 1.10 | 0.62 | – | –
5 | CC1CCCCC1 [Methyl Cyclohexane] | 16 | 1 | 0 | – | – | 0.14 | 0.47 | 1.0 | 3.3
6 | CCCCCCCC/C=C\CCCCCCCC(=O)OC [Methyl Oleate] | 16.2 | 4.5 | 3.8 | 1.9 | 5.9 | 0.83 | 0.27 | – | –
7 | CC1COC(=O)O1 (stereo not drawn) [Propylene Carbonate] | 20 | 4.1 | 18 | 17.2 | 20.1 | 2.83 | 2.42 | – | –
8 | CC1=CC=C(C(C)C)CC1 [alpha terpinene] | 16.2 | 4.6 | 1 | 2.1 | 4.7 | 0.67 | 0.30 | – | –
9 | CC1=CC[C@@H](C(C)(C)O)CC1 [alpha terpineol] | 16.1 | 11.2 | 4.6 | 8.4 | 12.1 | 1.71 | 1.18 | – | –
10 | CCCCOC(=O)c1ccccc1 [butyl benzoate] | 18.3 | 5.5 | 5.6 | 5.6 | 9.1 | 1.28 | 0.79 | – | –
11 | CCCCOC(=O)CC(C)O (stereo not drawn) [butyl-3-hydroxybutyrate] | 16.10 | 11.50 | 6.40 | 9.3 | 13.2 | 1.85 | 1.31 | – | –
12 | C1CCCCC1 [cyclohexane] | 16.8 | 0.2 | 0 | 4.0 | 1.6 | 0.23 | 0.56 | – | –
13 | OC1CCCCC1 [cyclohexanol] | 17.4 | 13.5 | 4.1 | 10.7 | 14.4 | 2.03 | 1.51 | – | –
14 | C=C(C)[C@H]1CC=C(C)CC1 [d-limonene] | 17.2 | 4.3 | 1.8 | 2.3 | 5.2 | 0.74 | 0.32 | – | –
15 | CC12CCC(CC1)C(C)(C)O2 [eucalyptol] | 17 | 3.3 | 4 | 2.1 | 5.6 | 0.78 | 0.29 | – | –
16 | CCCCCCC [heptane] | 15.34 | 0 | 0 | 4.4 | 1.3 | 0.19 | 0.62 | – | –
17 | CCCCCCCO [heptanol] | 16.57 | 12.27 | 4.09 | 9.3 | 13.0 | 1.83 | 1.31 | – | –
18 | CCCCCCOC(C)=O [hexyl acetate] | 15.95 | 5.93 | 3.07 | 3.0 | 6.7 | 0.94 | 0.42 | – | –
19 | CC1=CC(=O)CC(C)(C)C1 [isophorone] | 16.6 | 7.4 | 8.2 | 7.2 | 11.1 | 1.56 | 1.01 | – | –
20 | C=CC(C)(O)CCC=C(C)C (stereo not drawn) [linalool] | 16.5 | 6.9 | 2.8 | 3.8 | 7.5 | 1.06 | 0.54 | – | –
21 | Cc1cccc(O)c1 [m-Cresol] | 18.5 | 13.7 | 6.5 | 12.2 | 16.0 | 2.25 | 1.71 | – | –
22 | CCCCCCCCCCCC(=O)OC [methyl dodecanoate] | 16.54 | 5.43 | 2.06 | 2.4 | 5.9 | 0.83 | 0.34 | – | –
23 | CCCCCCCC(=O)OC [methyl octanoate] | 16.58 | 5.85 | 2.4 | 2.8 | 6.4 | 0.91 | 0.40 | – | –
24 | CCCCOC(C)=O [n-Butyl Acetate] | 15.8 | 6.3 | 3.7 | 3.6 | 7.3 | 1.03 | 0.50 | – | –
25 | CCCCOC(=O)CC [n-Butyl Propionate] | 15.7 | 5.9 | 5.5 | – | – | 1.14 | 0.60 | 8.1 | 4.3
26 | CC(=O)OC(C)(C)C [t-Butyl Acetate] | 15 | 6 | 3.7 | 4.1 | 7.3 | 1.03 | 0.57 | – | –
27 | CC(C)(C)O [t-Butyl Alcohol] | 15.2 | 14.7 | 5.1 | 12.1 | 15.6 | 2.20 | 1.70 | – | –
